biological target: T1, MAGL protein (Homo sapiens, UniProt Q99685); assay: 2-AG assay: MAGL inhibitory activity by hydrolysis of 2-arachidonoylglycerol to arachidonic acid, followed by mass spectrometry; assay type: biochemical; conditions: 8 μM 2-arachidonoylglycerol, 15 min preincubation, 30 min reaction at RT, RapidFire MS readout
T1 sequence (Q99685 1-303): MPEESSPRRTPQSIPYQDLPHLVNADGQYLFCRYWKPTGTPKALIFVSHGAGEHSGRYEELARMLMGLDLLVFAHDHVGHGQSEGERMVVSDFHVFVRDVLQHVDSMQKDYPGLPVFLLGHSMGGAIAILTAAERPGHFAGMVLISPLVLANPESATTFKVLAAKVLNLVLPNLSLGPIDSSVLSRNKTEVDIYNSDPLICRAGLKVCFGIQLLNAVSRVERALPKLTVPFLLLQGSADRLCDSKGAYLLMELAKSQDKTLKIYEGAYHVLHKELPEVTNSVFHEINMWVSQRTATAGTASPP
Method in brief: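 MAGL was preincubated 15 min at RT with compound (12.5 to […], 3-fold steps) in 50 mM TRIS, 1 mM EDTA, 0.01% Tween-20, 2.5% DMSO. The reaction ran 30 min at RT with 8 μM 2-AG. Arachidonic acid was quantified by RapidFire SPE-MS/MS against a d8-arachidonic acid internal standard.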

SMILES	IC50 [nM]
Cc1cc(C(F)F)nn1-c1ccc(C2CN(C(=O)N3CC4(CC(c5nnc(C6CC6)[nH]5)C4)C3)C2)cc1 [compound 285]	0.37
COc1cc(Cl)ccc1CN(C)C1CN(C(=O)N2CC3(CC(c4nnc(C5CC5)[nH]4)C3)C2)C1 [Example 891, [3-[(4-chloro-2-methoxy-benzyl)-methyl-amino]azetidin-1-yl]-[6-(5-cyclopropyl-4H-1,2,4-triazol-3-yl)-2-azaspiro[3.3]heptan-2-yl]methanone]	34
O=C(N1CC2(CC(c3nnc(C4CC4)[nH]3)C2)C1)N1CC2(CN(Cc3nc(-c4ccccc4)no3)C2)C1 [compound 888]	2.85
O=C(N1CC2(CC(Cn3nccc3C(F)(F)F)C2)C1)N1CC2(CC(c3nc(C4(F)CC4)n[nH]3)C2)C1 [compound 457]	0.31
O=C(N1CC(NCc2ccc(C(F)(F)F)cc2F)C1)N1CC2(CC(c3nnc(C4(O)CC4)[nH]3)C2)C1 [compound 198]	177
CS(=O)(=O)c1cc(C2CN(C(=O)N3CC4(CC(c5nnc(C6CC6)[nH]5)C4)C3)C2)ccc1C1CCC1 [compound 297]	3.16
CS(=N)(=O)c1ccc(CC2CC3(C2)CN(C(=O)N2CC4(CC(c5nnc(C6CC6)[nH]5)C4)C2)C3)cc1 (centres unmarked) [compound 123]	3.98
O=C(N1CC(N(Cc2ccc(C(F)(F)F)cc2F)C2CC2)C1)N1CC2(CC(c3nnc(C4CC4)[nH]3)C2)C1 [compound 200]	69.7
O=C(N1CC(CN2CCC(F)(F)CC2)C1)N1CC2(CC(c3nnc(C4CC4)[nH]3)C2)C1 [compound 219]	923
N#Cc1ncc(CC2CC3(C2)CN(C(=O)N2CC4(CC(c5nnc(C6CC6)[nH]5)C4)C2)C3)cc1C(F)(F)F [compound 535]	0.65
Cn1ncc(CC2CC3(C2)CN(C(=O)N2CC4(CC(c5nc(C6(F)CC6)n[nH]5)C4)C2)C3)c1C(F)(F)F [compound 475]	0.08
O=C(N1CC(c2ccc(S(=O)(=O)c3ccccc3)cc2)C1)N1CC2(CC(c3nnc(C4CC4)[nH]3)C2)C1 [compound 371]	0.4
O=C(N1CC2(CC(c3nc(C4CC(F)(F)C4)n[nH]3)C2)C1)N1CC2(CN(Cc3cc(C(F)(F)F)ns3)C2)C1 [compound 561]	1450
Cc1cc(C(F)(F)F)cnc1OC1CC2(CCN(C(=O)N3CC4(CC(c5nc(C6CC6)n[nH]5)C4)C3)CC2)C1 [Example 836]	0.08
O=C(N1CC2(CC(Cc3cc(F)cc(C(F)(F)F)c3)C2)C1)N1CC2(CC(c3nnc(C4CC4)[nH]3)C2)C1 [compound 121]	0.01
O=C(N1CC2(CC(c3nnc(C4CC4)[nH]3)C2)C1)N1CC2(C1)CN(S(=O)(=O)c1ccccc1C(F)(F)F)C2 [compound 96]	2.94
O=C(N1CC(C23CC(c4nnc(C5(C(F)(F)F)CC5)s4)(C2)C3)C1)N1CC2(CC(c3nc(C4CC4)n[nH]3)C2)C1 [compound 557]	12.4
CC(F)(F)c1noc(CN2CC3(C2)CN(C(=O)N2CC4(CC(c5nc(C6CC6)n[nH]5)C4)C2)C3)n1 [compound 743]	13.2
O=C(N1CC2(CC(c3nnc(C4CC4)[nH]3)C2)C1)N1CC2(CC(N3CC(CC(F)(F)F)C3)C2)C1 [compound 84]	32.7

SMILES	IC50 [nM]
O=C(N1CC(c2cnc(N3CC(C(F)(F)F)C3)nc2)C1)N1CC2(CC(c3nc(C4CC(F)(F)C4)n[nH]3)C2)C1 [compound 978]	2210
O=C(N1CC2(CC(Cc3nc(C(F)(F)F)c[nH]3)C2)C1)N1CC2(CC(c3nc(C4CC4)n[nH]3)C2)C1 [compound 524]	1.4
O=C(N1CC2(CCC(Cc3ncc(F)cc3F)C2)C1)N1CC2(CC(c3nnc(C4CC4)[nH]3)C2)C1 (single isomer, unassigned) [compound 148]	0.17
CC1(NS(=O)(=O)N2CC3(CN(C(=O)N4CC5(CC(c6nnc(C7CC7)[nH]6)C5)C4)C3)C2)CC1 [compound 213]	45
N#Cc1cc(CC2CC3(C2)CN(C(=O)N2CC4(CC(c5nc(C6COC6)n[nH]5)C4)C2)C3)ccc1C(F)(F)F [compound 808]	0.29
O=C(N1CC2(CC(c3nnc(C4CC4)[nH]3)C2)C1)N1CC2(CN(Cc3ccc(F)cc3C(F)(F)F)C2)C1 [compound 169]	0.62
Cn1cc(CC2CC3(C2)CN(C(=O)N2CC4(CC(c5nc(C6CC6)n[nH]5)C4)C2)C3)c(C(F)(F)F)n1 [compound 770]	0.23
O=C(N1CC(Oc2cccc(C3CC3)c2F)C1)N1CC2(CC(c3nnc(C4(O)CC4)[nH]3)C2)C1 [compound 322]	11.7
N=S(=O)(c1ccc(CC2CC3(C2)CN(C(=O)N2CC4(CC(c5nc(C6(O)CC6)n[nH]5)C4)C2)C3)cc1)C(F)(F)F (centres unmarked) [compound 555]	0.34
CS(=O)(=O)c1cc(C(F)(F)F)ccc1CC1CC2(C1)CN(C(=O)N1CC3(CC(c4nnc(C5CC5)[nH]4)C3)C1)C2 [compound 39]	0.15
O=C(N1CC2(CC(c3nnc(C4CC4)[nH]3)C2)C1)N1CC2(CN(Cc3cnc(C(F)(F)F)nc3)C2)C1 [compound 162]	32.7
O=C(N1CC2(CC(c3nc(C4CC4)n[nH]3)C2)C1)C12CC(Nc3cnc(C(F)(F)F)cn3)(C1)C2 [Example 473, [6-(3-cyclopropyl-1H-1,2,4-triazol-5-yl)-2-azaspiro[3.3]heptan-2-yl]-[3-[[5-(trifluoromethyl)pyrazin-2-yl]amino]-1-bicyclo[1.1.1]pentanyl]methanone]	67.8
O=C(N1CC2(CC(Cc3ccc(OC(F)(F)F)nc3)C2)C1)N1CC2(CC(c3nc(C4CC4)n[nH]3)C2)C1 [compound 501]	0.92
O=C(N1CC(c2ccc(-c3cc(C(F)(F)F)n[nH]3)cc2)C1)N1CC2(CC(c3nnc(C4CC4)[nH]3)C2)C1 [compound 851]	0.23
O=C(N1CC2(CC(c3nnc(C4CC4)[nH]3)C2)C1)N1CC2(C1)CN(S(=O)(=O)c1ccc(OC(F)(F)F)cc1)C2 [compound 91]	4.05
O=C(N1CC2(CC(Cc3ccc4[nH]ncc4n3)C2)C1)N1CC2(CC(c3nc(C4CC4)n[nH]3)C2)C1 [compound 684]	4.33
O=C(N1CC(c2ccc(C3(c4nnn[nH]4)CC3)cc2)C1)N1CC2(CC(c3nnc(C4CC4)[nH]3)C2)C1 [compound 379]	61
O=C(N1CC2(CCC(Cc3nnc(C(F)(F)F)[nH]3)CC2)C1)N1CC2(CC(c3nc(C4CC4)n[nH]3)C2)C1 [compound 436]	32.3
O=C(N1CC2(CC(c3nnc(C4CC4)[nH]3)C2)C1)N1CC2(CC(N3CC(C(F)(F)F)C3)C2)C1 [compound 83]	25.7

SMILES	IC50 [nM]
O=C(N1CC2(CC(CNC3(C(F)(F)F)CC3)C2)C1)N1CC2(CC(c3nnc(C4(O)CC4)[nH]3)C2)C1 [compound 55]	22
O=C(N1CC2(CCC(Oc3cnc(C(F)(F)F)cn3)CC2)C1)N1CC2(CC(c3nnc(C4CC4)[nH]3)C2)C1 [compound 74]	0.77
N=S(=O)(c1ccc(CC2CC3(C2)CN(C(=O)N2CC4(CC(c5nc(C6(O)CC6)n[nH]5)C4)C2)C3)c(F)c1)C(F)(F)F (centres unmarked) [compound 715]	0.45
CC(C)(C)c1coc(CN2CC3(C2)CN(C(=O)N2CC4(CC(c5nc(C6CC6)n[nH]5)C4)C2)C3)n1 [compound 483]	2.13
CS(=O)(=O)c1cccc(CC2CC3(C2)CN(C(=O)N2CC4(CC(c5nnc(C6CC6)[nH]5)C4)C2)C3)c1 [compound 15]	1.33
O=C(N1CC2(CC(Cc3ccc(C(F)(F)F)nn3)C2)C1)N1CC2(CC(c3nc(C4(F)CC4)n[nH]3)C2)C1 [compound 460]	2.64
Cc1cc(C2CC2)nn1-c1ccc(C2CN(C(=O)N3CC4(CC(c5nnc(C6CC6)[nH]5)C4)C3)C2)cc1 [compound 288]	0.19
O=C(N1CC(C23CC(c4cc(C5CC5)n[nH]4)(C2)C3)C1)N1CC2(CC(c3nc(C4CC(F)(F)C4)n[nH]3)C2)C1 [compound 702]	255
O=C(N1CC2(CCC(Oc3cc(Cl)ccc3Cl)CC2)C1)N1CC2(CC(c3nnc(C4(O)CC4)[nH]3)C2)C1 [compound 346]	0.13
CNc1nnc(-c2ccc(C3CN(C(=O)N4CC5(CC(c6nnc(C7CC7)[nH]6)C5)C4)C3)cc2)s1 [Example 600, [6-(5-cyclopropyl-4H-1,2,4-triazol-3-yl)-2-azaspiro[3.3]heptan-2-yl]-[3-[4-[5-(methylamino)-1,3,4-thiadiazol-2-yl]phenyl]azetidin-1-yl]methanone]	4.25
O=C(N1CC(c2ccc(Oc3ccccc3Cl)nc2)C1)N1CC2(CC(c3nnc(C4CC4)[nH]3)C2)C1 [compound 367]	0.15
O=C(N1CC2(CC(Cc3nc(C(F)(F)F)cs3)C2)C1)N1CC2(CC(c3nc(C4(O)CC4)n[nH]3)C2)C1 [compound 536]	3.93
O=C(N1CC(C23CC(NCC4(C(F)(F)F)CC4)(C2)C3)C1)N1CC2(CC(c3nc(C4(F)CC4)n[nH]3)C2)C1 [compound 578]	0.51
O=C(N1CC(C23CC(S(=O)(=O)CC4(C(F)(F)F)CC4)(C2)C3)C1)N1CC2(CC(c3nc(C4CC4)n[nH]3)C2)C1 [compound 528]	497
CS(=O)(=O)c1cc(C(F)(F)F)ccc1C1CC2(C1)CN(C(=O)N1CC3(CC(c4nnc(C5CC5)[nH]4)C3)C1)C2 [compound 803]	1.39
O=C(N1CC(NCc2ccc(C(F)(F)F)cc2F)C1)N1CC2(CC(c3nnc(C4CC4)[nH]3)C2)C1 [compound 192]	23.2
O=C(N1CC2(CC(Cc3n[nH]c(C(F)(F)F)n3)C2)C1)N1CC2(CC(c3nc(C4CC4)n[nH]3)C2)C1 [compound 494]	3.69
CS(=O)(=O)c1ccc(CC2CC3(C2)CN(C(=O)N2CC4(CC(c5nnc(C6(O)CC6)[nH]5)C4)C2)C3)cc1C(F)(F)F [compound 47]	0.27
